{"source": "paper PMC12596928", "about": "(Chembiochem, 2025)", "key": {"[1]": {"target": "T1, SdeA (Legionella pneumophila subsp. pneumophila, UniProt Q5ZTK4)", "T1 sequence (Q5ZTK4 231-1190 limits assumed)": "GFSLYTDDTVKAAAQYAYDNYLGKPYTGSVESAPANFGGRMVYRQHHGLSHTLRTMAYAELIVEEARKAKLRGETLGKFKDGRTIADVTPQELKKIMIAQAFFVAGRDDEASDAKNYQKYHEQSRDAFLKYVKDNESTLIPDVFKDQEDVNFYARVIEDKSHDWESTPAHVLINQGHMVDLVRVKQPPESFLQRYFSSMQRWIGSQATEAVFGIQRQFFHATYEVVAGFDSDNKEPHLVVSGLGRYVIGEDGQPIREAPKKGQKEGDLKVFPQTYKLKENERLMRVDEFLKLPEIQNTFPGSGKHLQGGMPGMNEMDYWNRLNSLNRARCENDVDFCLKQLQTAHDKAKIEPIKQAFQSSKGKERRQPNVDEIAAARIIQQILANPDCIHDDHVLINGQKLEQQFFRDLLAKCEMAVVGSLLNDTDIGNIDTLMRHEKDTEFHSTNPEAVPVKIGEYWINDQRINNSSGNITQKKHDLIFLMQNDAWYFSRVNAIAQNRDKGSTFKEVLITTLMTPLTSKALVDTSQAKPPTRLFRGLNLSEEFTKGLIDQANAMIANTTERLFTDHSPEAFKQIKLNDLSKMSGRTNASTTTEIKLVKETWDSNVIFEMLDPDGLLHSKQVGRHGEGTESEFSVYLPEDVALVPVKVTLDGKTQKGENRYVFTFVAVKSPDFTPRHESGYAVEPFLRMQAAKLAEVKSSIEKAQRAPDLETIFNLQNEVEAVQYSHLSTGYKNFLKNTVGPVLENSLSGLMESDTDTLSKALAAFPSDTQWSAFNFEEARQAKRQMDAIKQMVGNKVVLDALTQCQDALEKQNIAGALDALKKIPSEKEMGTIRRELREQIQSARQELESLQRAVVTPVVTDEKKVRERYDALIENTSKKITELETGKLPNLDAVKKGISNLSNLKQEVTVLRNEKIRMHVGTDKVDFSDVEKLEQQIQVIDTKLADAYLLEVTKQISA", "experiment": "biochemical"}, "[2]": {"target": "T1, SdeA", "experiment": "biochemical", "remark": "listed apart in the source"}, "[3]": {"target": "T1, SdeA", "assay_type": "biochemical"}}, "note": "“And” between values parts separate entries of the source, which are not always exact repeats. Identical values can stand only once. Counter-ions that a name gives are not always drawn. Like-named read-outs stand apart in the source and are kept apart here."}
{"smiles": "[Cl-].[Cl-].[Zn+2]", "note": "[ZnCl2]", "values": [{"measurement": "fold difference in IC50 between zinc and copper", "setting": "[1]", "result": 40, "unit": "fold"}, {"measurement": "IC50", "setting": "[1]; read-out: IC50", "result": "0.46 µM and 0.3 µM"}]}
{"smiles": "O=c1cc2c(=O)oc3cc(O)c(O)oc3c2c(O)c1O", "note": "[Galloflavin potassium salt]", "values": [{"measurement": "inhibition at 5 µM", "setting": "[2]", "result": 92.4, "unit": "%"}]}
{"smiles": "O=c1c(O)c(-c2ccc(O)c(O)c2)oc2cc(O)cc(O)c12", "note": "[Quercetin dihydrate]", "values": [{"measurement": "inhibition at 5 µM", "setting": "[2]", "result": 52.2, "unit": "%"}]}
{"smiles": "O=[N+]([O-])[O-].O=[N+]([O-])[O-].[Cd+2]", "note": "[Cd(NO3)2]", "values": [{"measurement": "IC50", "setting": "[1]; read-out: IC50", "result": 29.8, "unit": "µM"}]}
{"smiles": "[Cl][Mn][Cl]", "note": "[MnCl2]", "values": [{"measurement": "IC50 (μM)", "setting": "[1]", "result": "do not show any inhibitory effect and n.i"}]}
{"smiles": "[Cl-].[Cl-].[Mg+2]", "note": "[MgCl2]", "values": [{"measurement": "IC50 (μM)", "setting": "[1]", "result": "do not show any inhibitory effect and n.i"}]}
{"smiles": "CCCCCCCC(=O)ON1C(=O)CCC1=O", "note": "[N‐succinimidyl octanoate]", "values": [{"measurement": "inhibition of SdeA", "setting": "[3]", "result": "full inhibition"}]}
{"smiles": "[Cl][Cu][Cl]", "note": "[CuCl2]", "values": [{"measurement": "IC50", "setting": "[1]; read-out: IC50", "result": 12.3, "unit": "µM"}]}
{"smiles": "CC(=O)OCC1=C(C(=O)O)N2C(=O)[C@@H](NC(=O)CCC[C@@H](N)C(=O)O)[C@H]2SC1", "note": "[Cephalosporin C zinc salt, cephalosporin C Zn^2+ salt]", "values": [{"measurement": "Inhibition", "setting": "[2]", "result": 75, "unit": "%"}, {"measurement": "inhibition at 5 µM", "setting": "[2]", "result": 74.6, "unit": "%"}, {"measurement": "IC50", "setting": "[1]; IC50", "result": "0.221 µM and 0.2 µM"}]}
{"smiles": "[Cl][Ni][Cl]", "note": "[NiCl2]", "values": [{"measurement": "IC50", "setting": "[1]; read-out: IC50", "result": 67.1, "unit": "µM"}]}
{"smiles": "O=C(O)C1=CC(=C(c2ccc(O)c(C(=O)O)c2)c2ccc(O)c(C(=O)O)c2)C=CC1=O", "note": "[Aurintricarboxylic acid]", "values": [{"measurement": "inhibition at 5 µM", "setting": "[2]", "result": 96.3, "unit": "%"}]}
{"smiles": "NC(=O)c1cccc(N)c1", "note": "[3‐AB, 3‐aminobenzamide]", "values": [{"measurement": "behaviour as potential positive control", "setting": "[3]", "result": "auto‐fluorescent"}]}
{"smiles": "N#CC(C#N)=C(N)/C(C#N)=C/c1cc(O)c(O)c(O)c1", "note": "[Tyrphostin A51]", "values": [{"measurement": "inhibition at 5 µM", "setting": "[2]", "result": 98.2, "unit": "%"}]}
{"smiles": "O=[N+]([O-])[O-].O=[N+]([O-])[O-].[Pb+2]", "note": "[Pb(NO3)2]", "values": [{"measurement": "IC50", "setting": "[1]; read-out: IC50", "result": 43.6, "unit": "µM"}]}
{"smiles": "O=c1cc(-c2ccccc2)oc2c(O)c(O)ccc12", "note": "[Dihydroxyflavone]", "values": [{"measurement": "inhibition at 5 µM", "setting": "[2]", "result": 96.5, "unit": "%"}]}
